Values joined by “and” are separate entries in the source; they are usually repeats but may differ in a detail not shown here. Identical values can stand only once. Numbers after ± are expanded uncertainties.
Settings: Fluid (supercritical or subcritical phases), Hot wire method

FC(F)(F)/C=C/Cl [(E)-1-chloro-3,3,3-trifluoroprop-1-ene]
Settings	thermal conductivity
451.94 K, 2166 kPa	0.02385 ± 0.0012 W/m/K
451.94 K, 5208 kPa	0.04623 ± 0.019 W/m/K
451.95 K, 2165 kPa	0.02394 ± 0.00099 W/m/K
451.98 K, 987 kPa	0.02333 ± 0.0012 W/m/K
451.98 K, 990 kPa	0.0233 ± 0.00095 W/m/K
451.98 K, 3273 kPa	0.02726 ± 0.0096 W/m/K
451.99 K, 3272 kPa	0.02725 ± 0.0057 W/m/K
452.01 K, 1670 kPa	0.02346 ± 0.0027 W/m/K
452.01 K, 1671 kPa	0.0235 ± 0.0022 W/m/K
452.01 K, 2616 kPa	0.02474 ± 0.0029 W/m/K
452.01 K, 2617 kPa	0.02483 ± 0.0027 W/m/K
452.03 K, 5206 kPa	0.0467 ± 0.018 W/m/K
452.03 K, 5207 kPa	0.04676 ± 0.02 W/m/K
452.06 K, 2990 kPa	0.026 ± 0.003 W/m/K
452.06 K, 2991 kPa	0.02595 ± 0.0038 W/m/K
452.09 K, 2165 kPa	0.02407 ± 0.0015 W/m/K and 0.024 ± 0.0025 W/m/K
452.12 K, 5207 kPa	0.0469 ± 0.02 W/m/K
452.13 K, 5206 kPa	0.04663 ± 0.017 W/m/K
452.14 K, 7293 kPa	0.04964 ± 0.0052 W/m/K
452.14 K, 7296 kPa	0.04969 ± 0.0042 W/m/K
452.15 K, 987 kPa	0.02338 ± 0.0017 W/m/K
452.16 K, 988 kPa	0.02337 ± 0.0017 W/m/K
452.16 K, 2617 kPa	0.02488 ± 0.0027 W/m/K
452.17 K, 1671 kPa	0.02356 ± 0.0018 W/m/K
452.17 K, 2617 kPa	0.02487 ± 0.0037 W/m/K
452.19 K, 5579 kPa	0.04728 ± 0.012 W/m/K
452.2 K, 2991 kPa	0.02606 ± 0.0012 W/m/K
452.2 K, 5578 kPa	0.0472 ± 0.014 W/m/K
452.21 K, 2990 kPa	0.026 ± 0.0017 W/m/K
452.23 K, 5207 kPa	0.04713 W/m/K
452.24 K, 5208 kPa	0.0472 W/m/K
452.25 K, 2165 kPa	0.024 ± 0.0046 W/m/K
452.29 K, 5577 kPa	0.04741 ± 0.014 W/m/K
452.3 K, 5578 kPa	0.04745 ± 0.014 W/m/K
452.31 K, 7293 kPa	0.04973 ± 0.0045 W/m/K
452.32 K, 7296 kPa	0.0498 ± 0.0045 W/m/K
452.33 K, 988 kPa	0.0233 ± 0.0015 W/m/K
452.33 K, 2615 kPa	0.02494 ± 0.0093 W/m/K
452.33 K, 2618 kPa	0.02493 ± 0.0065 W/m/K
452.33 K, 6080 kPa	0.04801 ± 0.0095 W/m/K
452.33 K, 6081 kPa	0.04806 ± 0.0088 W/m/K
452.34 K, 988 kPa	0.02333 ± 0.0016 W/m/K
452.34 K, 1671 kPa	0.02345 ± 0.0024 W/m/K
452.35 K, 1672 kPa	0.02348 ± 0.002 W/m/K
452.36 K, 22580 kPa	0.06316 ± 0.0034 W/m/K
452.41 K, 5578 kPa	0.04763 ± 0.014 W/m/K
452.42 K, 2166 kPa	0.02413 ± 0.0054 W/m/K
452.42 K, 2167 kPa	0.02408 ± 0.0046 W/m/K
452.42 K, 5577 kPa	0.04756 ± 0.012 W/m/K
452.43 K, 12588 kPa	0.05554 ± 0.0036 W/m/K
452.43 K, 12589 kPa	0.05558 ± 0.0032 W/m/K
452.46 K, 18530 kPa	0.06032 ± 0.0025 W/m/K
452.46 K, 18535 kPa	0.06035 ± 0.0028 W/m/K
452.48 K, 7729 kPa	0.0503 ± 0.004 W/m/K
452.48 K, 7733 kPa	0.05033 ± 0.0038 W/m/K
452.49 K, 10507 kPa	0.05349 ± 0.0043 W/m/K
452.5 K, 7296 kPa	0.04992 ± 0.0053 W/m/K
452.5 K, 7299 kPa	0.04984 ± 0.0053 W/m/K
452.51 K, 6079 kPa	0.04861 ± 0.0091 W/m/K
452.51 K, 6081 kPa	0.04828 ± 0.0096 W/m/K
452.51 K, 15249 kPa	0.05785 ± 0.003 W/m/K
452.52 K, 10513 kPa	0.05353 ± 0.0034 W/m/K
452.52 K, 15256 kPa	0.05787 ± 0.003 W/m/K
452.52 K, 22575 kPa	0.06312 ± 0.0034 W/m/K
452.52 K, 22580 kPa	0.06313 ± 0.0028 W/m/K
452.53 K, 989 kPa	0.02342 ± 0.0014 W/m/K
452.53 K, 5576 kPa	0.04776 ± 0.0085 W/m/K
452.53 K, 5577 kPa	0.0478 ± 0.012 W/m/K
452.53 K, 6779 kPa	0.0491 ± 0.005 W/m/K
452.53 K, 6780 kPa	0.0491 ± 0.005 W/m/K
452.54 K, 985 kPa	0.02339 ± 0.0013 W/m/K
452.54 K, 1671 kPa	0.02355 ± 0.0034 W/m/K

Reference: the NIST ThermoML archive (doi:10.1021/acs.jced.7b00106)
